Data from PMC12635197, “Discovery of first-in-class inhibitors of the TRF1:TIN2 protein:protein interaction by fragment screening” (Scientific Reports, 2025).

Legend:
[1] = Fragment solubility assay (quantitative 1H NMR); assay type: physicochemical; settings: NMR buffer, overnight incubation, 1H NMR quantified against 1 mM caffeine standard
Protocol: Aqueous solubility test samples were prepared by adding 3.6 µL compound (50 mM stock in 100% DMSO-d6) to 176.4 µL NMR buffer in a microcentrifuge tube. The samples were incubated overnight and transferred to a 3-mm NMR tube (Bruker, Part No. Z112272). ^1H NMR spectra were recorded, with the DMSO and water signals dampened. 1 mM caffeine (Sigma, C1778 in PBS (pH 7.4) with 1% DMSO-d6) was used as a standard to quantify the ligand signals and determine the concentration of samples.
NMR data were collected on a Bruker Avance Neo 600-MHz spectrometer equipped with a 5 mm TCI-CryoProbe. The ^1H spectrum was referenced to the internal deuterated solvent. The operating frequency for ^1H was 600 MHz. All NMR data were acquired at the temperature of 298 K. All data were acquired and processed using Bruker Topspin 4.0. The quantitative ^1H-NMR spectrum was acquired using a Bruker standard 1D lc1pngppsf2 pulse sequence with 32 scans. The sweep width was 6.2 ppm with O1P set to 8.8 ppm, and the FID contained 16k time-domain data points. Relaxation delay was set to 20 s. Water signal was suppressed.

shelterin complex = target: T1, shelterin complex (Homo sapiens, UniProt P54274); assay: SDS-PAGE/Western blot of crosslinked shelterin after compound incubation; assay type: biochemical
T1 construct: evicted full-length TRF1 from the shelterin complex; made in house; host or cells: Spodoptera frugiperda (Sf9) insect cells, MultiBac baculovirus
T1 sequence (P54274 1-439): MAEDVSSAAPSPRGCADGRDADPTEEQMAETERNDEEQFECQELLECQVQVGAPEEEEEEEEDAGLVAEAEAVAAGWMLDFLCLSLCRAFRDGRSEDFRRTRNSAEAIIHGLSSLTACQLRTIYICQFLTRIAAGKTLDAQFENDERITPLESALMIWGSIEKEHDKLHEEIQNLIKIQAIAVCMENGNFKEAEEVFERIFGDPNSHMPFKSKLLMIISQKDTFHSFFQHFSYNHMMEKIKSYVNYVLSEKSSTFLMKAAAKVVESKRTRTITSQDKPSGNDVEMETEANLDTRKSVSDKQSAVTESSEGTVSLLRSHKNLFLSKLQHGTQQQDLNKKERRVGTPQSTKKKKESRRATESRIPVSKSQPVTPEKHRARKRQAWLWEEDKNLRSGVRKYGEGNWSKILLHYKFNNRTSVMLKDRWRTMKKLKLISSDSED
Excerpt: We developed a mass-photometry based assay to evaluate the ability of compound 40 to disrupt the TRF1TRFH:TIN2TBM interaction and subsequently evict TRF1 from the full shelterin complex. We expressed recombinant shelterin in insect cells (see Materials and Methods) and purified it via affinity and size exclusion chromatography (SEC). Given the compositional heterogeneity of shelterin, also observed by Zinder et al. 2022[42], we enriched a complex of approximately 700 kDa by serial SEC. The resulting complex was incubated with increasing concentrations of compound 40, and the resulting mass distribution was analysed by mass photometry. […] To confirm whether the evicted entity corresponds to TRF1, we analysed the full shelterin complex by SDS-PAGE, upon co-incubation with increasing amounts of compound 40 or control compound 60 and subsequent mild crosslinking, analogous to the mass photometry experiment. […]
For SDS-PAGE and Western blotting studies, SEC-purified shelterin was diluted to 0.9 µM and incubated with increasing concentrations of compound 40 or 60 (negative control) in the same range as for the MP experiment (from 0 to 300 µM). […] The samples were then analysed by SDS-PAGE, followed by either Coomassie staining or Western blotting. […] Normalised signal intensities from three independent experiments were analysed and plotted using GraphPad Prism (v10.5.0).

- Kin. Sol. [1]: 320 µM
- release of TRF1 (species migrating between 100 and 150 kDa) (shelterin complex; 0.9 µM shelterin, 0-300 µM compound, 0.075% glutaraldehyde): dose-dependently liberated
- release of TRF2 and TIN2 from shelterin (shelterin complex; Western blot probing for TRF2 and TIN2): TRF2 was not released, nor was TIN2
SMILES: COc1cc(COc2ccc(S(=O)(=O)[O-])c3ccccc23)cc(OC)c1.[Na+] [Compound 40]
